Row | melting point | Compound
1 | 105 to 115 °C | Cc1noc(NS(=O)(=O)c2ccccc2-c2ccc(-c3ncco3)cc2CN2CCN(C)C2=O)c1C
2 | 252 °C | O=C(NO)c1ccc2c(c1)CN(C(=O)c1ccc3[nH]ccc3c1)CC2
3 | 120 to 121 °C | COC(=O)CNC(=O)COc1ccc(C(C)=O)cc1
4 | 209 to 214 °C | COc1cc(-c2nc(-n3cccn3)c3c(C)c(C#N)sc3n2)cc(OC)c1OC
5 | 284 °C | NS(=O)(=O)c1nnc(NC(=O)c2cnn3c(C(F)F)cc(-c4ccc(C(F)(F)F)cc4)nc23)s1
6 | 188 to 191 °C | Nc1ccccc1C(=O)NN=Cc1c(O)ccc2ccccc12
7 | 191 °C | Cc1cc2c(cc1N(C)CC(C)C)N=C(c1cccc(-n3ncnc3CO)c1)CC(=O)N2
8 | 140 to 145 °C | Cc1c(Cc2cccc(C(F)(F)F)c2)sc2c(-c3cccc(C(=O)NCCO)c3)cccc12
9 | 272 to 275 °C | O=C(c1ccc(OCC2CC2)c2oc3ccccc3c12)[NH+]([O-])c1cccnc1 (stereo not drawn)
10 | 80 to 82 °C | COC(=O)C(Cc1ccc(OS(=O)(=O)C(F)(F)F)c(OS(=O)(=O)C(F)(F)F)c1)NC(=O)OC(C)(C)C (stereo not drawn)
11 | 41 to 42 °C | Cc1cc(C(C)(C)CCl)c(Cl)nn1
12 | 133 to 135 °C | O=C1CCC(N2Cc3c(OCc4ccc(CN5CCN(CC(F)(F)F)CC5)cc4)cccc3C2=O)C(=O)N1 (stereo not drawn)
13 | 112 to 118 °C | Cc1cc(C(=O)O)ccc1OCCNC(=O)C1Cc2ccccc2N1S(=O)(=O)c1ccc(-c2ccc(F)cc2)cc1 (stereo not drawn)
14 | 132 °C | O=C1C(=Cc2ccncc2)COc2ccccc21
15 | 271 to 272 °C | O=C(Nc1cccnn1)N1CCN(c2nccc(-c3cc(F)ccc3F)n2)CC1
16 | 100 to 108 °C | COc1c2c(c(OC)c(OC)c1OC)CC(CCCCCCC1Cc3c(c(OC)c(OC)c(OC)c3OC)C1)C2
17 | 162 °C | Cc1cc(-c2[nH]c3ccc(OCc4ccccc4)cc3c2C)cc(C)c1O
18 | 217 to 218 °C | O=C1CCC(c2ccc(NC3=NCCS3)cc2)=NN1
19 | 181 to 182 °C | CCc1ccc(-c2ccc3c(c2)C=C(C(=O)Nc2ccc(CN(C)C4CCOCC4)cc2)CCO3)cc1
20 | 176 to 177 °C | CN(C(=O)c1ccc(-n2cc3ccccc3n2)cc1)C1CCN(C(=O)OC(C)(C)C)CC1
21 | 187 to 188 °C | Cc1c(C(=O)c2cnn(C(C)(C)C)c2O)ccc(S(C)(=O)=O)c1-c1ccc(S(C)(=O)=O)cc1
22 | 288 to 290 °C | Nc1cc2c(cn1)[nH]c1ccccc12

Row | melting point | Compound
23 | 190 to 192 °C | O=C(CCCN1CCC(c2ccccc2)CC1)c1ccc2c(c1)Cc1cc(C(=O)CCCN3CCC(c4ccccc4)CC3)ccc1-2
24 | 160 °C | Cc1cc(-c2cc(C(F)(F)F)n3ncc(I)c3n2)ccc1C(F)(F)F
25 | 125 to 127 °C | CCN(CC)C1CCN(c2ccc(C(C)=O)cc2)CC1
26 | 173 to 174 °C | O=Cc1ccc2cc(C=O)ccc2c1
27 | 54 to 56 °C | CC(C)N(CCSc1ccc(Cl)cc1)C(=O)Oc1ccccc1
28 | 75 to 77 °C | CCOC(=O)C1=C(C)NC(C(OCC)OCC)=C(C(=O)OCC)C1c1ccccc1Cl (stereo not drawn)
29 | 129 to 132 °C | C[Si](C)(C)CCCCNC(=O)n1cc(F)c(=O)[nH]c1=O
30 | 165 to 167 °C | Clc1ccc(-c2cc(C3CCN(CCCc4ccccc4)CC3)n[nH]2)cc1
31 | 146 to 149 °C | COc1ccc(-c2nc(CNC(=O)NC(C)C)sc2-c2ccc(OC)cc2)cc1
32 | 99 to 100 °C | OC(CCCN1CCC(c2ncco2)CC1)c1ccc(F)cc1 (stereo not drawn)
33 | 156 to 158 °C | CC(C)C(NC(=O)N(C)Cc1ccccn1)C(=O)N(C(=O)C(NC(=O)N(C)Cc1nccs1)C(C)C)C(Cc1ccccc1)CC(O)CCc1ccccc1 (stereo not drawn)
34 | 234 to 236 °C | CC12CCC(C1)C1(C)Oc3ccc(C4(c5ccc(C(=O)O)cc5)OCCO4)cc3C21C (stereo not drawn)
35 | 68 to 71 °C | CCCCc1ccc(CCCCC(COC(C)=O)(COC(C)=O)NC(C)=O)cc1
36 | 102 °C | Cc1cc(-n2ccnc2)c2cccc(OCc3c(Cl)ccc(S(=O)(=O)N4CCC[C@H]4C(=O)NCC4CCN(C(=O)c5ccccc5)CC4)c3Cl)c2n1
37 | 109 to 110 °C | OC(c1cncs1)(c1cncs1)C(F)(F)F
38 | 202 °C | CC(=O)Nc1cc(C)cc(CCC(=O)O)n1
39 | 117 to 121 °C | Cc1c[nH]c(=O)n(CCCCl)c1=O
40 | 194 °C | Nc1ccc2nc(-c3ccccc3)cc(OCC(=O)N3CCOCC3)c2c1
41 | 72 to 78 °C | O=c1c(OCC2CC2)cn(-c2cccc(C(F)(F)F)c2)nc1-c1ccnn1-c1ccccc1
42 | 126 to 127 °C | CCN(CC)CCNC(=O)c1cccc2c(=O)c(C)c(-c3ccc(OC)cc3)oc12
43 | 118 to 123 °C | O=C1OCCN1CCC1=NCCN1
44 | 121 to 122 °C | CCNC(=O)OCc1cnc(C)c(OC(=O)NCC)c1

Row | melting point | Compound
45 | 150 to 165 °C | COc1ccc(CN2CCC(c3ccc(-c4cccc(N)n4)cc3)CC2)cc1OC
46 | > 250 °C | CCOC(=O)Cn1c(=O)c(=O)[nH]c2ccc3ccc(N)cc3c21
47 | 155 to 157 °C | CC(=O)c1cccc(NC(=O)c2nnnn2Cc2ccccc2)c1O
48 | 112 to 113 °C | CCOC(=O)C=CC=Cc1cn(-c2cccnc2)c2ccccc12
49 | 160 °C | COC(C)(CC(=O)Nc1cccc(OC(=O)NC(C)C)c1)OC
50 | 246 to 248 °C | COC(=O)c1[nH]c(-c2ccccc2)c(NC(N)=O)c1C(=O)OC
51 | 87 to 88 °C | COc1cc2c(c3c1OC(C)(C)C3)C(c1cccc(Nc3ccccc3)c1)=NC(C)(C)C2
52 | 205 °C | Cc1ccc(S(=O)(=O)C(=CNc2ccc(Br)cn2)C(=O)c2ccccc2)cc1
53 | 245 to 247 °C | Cc1nc(N)nc(N)c1-c1cccc(Cl)c1Cl
54 | 205 to 206 °C | O=C(O)c1c(I)c(I)c(C(=O)O)c(I)c1I
55 | 81 to 83 °C | C[C@@H](c1ccc(/C=C/c2ccnn2C)cc1)[C@](O)(Cn1cncn1)c1ccc(F)cc1F
56 | 31 to 33 °C | O=C(CBr)C1=NO[C@@H](c2ccccc2)C1
57 | 247 to 248 °C | CCNCC1CCN(c2c(F)c(F)c3c(=O)c(C(=O)O)cn(C4CC4)c3c2F)C1 (stereo not drawn)
58 | 164 to 167 °C | CS(=O)(=O)c1ccc(C(CC2CCC(=O)C2)C(=O)O)cc1Cl (stereo not drawn)
59 | 97 to 100 °C | COc1cc(Sc2ccncc2)ccc1[N+](=O)[O-]
60 | 195 °C | CC(C)Nc1nc(N)c(C(=O)NC(N)=S)nc1Cl
61 | 245 to 246 °C | COc1ccc([N+](=O)[O-])c(NCCC[C@H](N)C(=O)O)c1
62 | 179 to 186 °C | O=C(Nc1ccc(Cl)nc1Cl)c1ccccc1O
63 | 160 to 161 °C | CC(C)(CC(=O)C(=O)Nc1ccc2c(c1)COC2=O)c1cccc(I)c1
64 | 73 to 75 °C | CSc1nc(C)ccc1NC(=O)CCCCCCCCSc1nc2ccccc2[nH]1
65 | 239 to 240 °C | CNc1nc(-c2ccccc2)c(-c2nc3ccccc3c(=O)n2-c2ccc(C(C)=O)cc2)s1

Row | Compound | melting point
66 | CN1C(=O)[C@H](NC(=O)c2ccccc2)N=C(c2ccccc2)c2ccccc21 | 224 to 225 °C
67 | COc1ccc(CN2CCC(c3cn(CCc4ccsc4)c4cc(F)ccc34)CC2)cc1C(=O)O | 228 to 229 °C
68 | CN1C[C@H](CN2CCN(C(c3ccccc3)c3ccccc3)CC2)C=C2c3cccc4c3c(cn4C)C[C@H]21 | 172 to 175 °C

Source: a melting point compilation (Tetko et al.; mined from patent text by program, amines drawn as free bases though some values may be those of a salt)
